Assay results taken from patent US20220002279A1, “NOVEL IMIDAZOLE DERIVATIVE” (priority 2018, published 2022).
pIC50: −log10 of the molar value. In brackets after ≈: the same amount, converted by molar mass. Like-named read-outs stand apart in the source and are kept apart here.

Experiments:
[1] = biological target: T1, Escherichia coli LpxC enzyme (Escherichia coli, UniProt P0A725); experiment: Inhibitory activity on Escherichia coli LpxC enzyme (fluorescamine method); assay type: biochemical
T1 construct: made in house; host or cells: Escherichia coli
T1 sequence (P0A725 1-305): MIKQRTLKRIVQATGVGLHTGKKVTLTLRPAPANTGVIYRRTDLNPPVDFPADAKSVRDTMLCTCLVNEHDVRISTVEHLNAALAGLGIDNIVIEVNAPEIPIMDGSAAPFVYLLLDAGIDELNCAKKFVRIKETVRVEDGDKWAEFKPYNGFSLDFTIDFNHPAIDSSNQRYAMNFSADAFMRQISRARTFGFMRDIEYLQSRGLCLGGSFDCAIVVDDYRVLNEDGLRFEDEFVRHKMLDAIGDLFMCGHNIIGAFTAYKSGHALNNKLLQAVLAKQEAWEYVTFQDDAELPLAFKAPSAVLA
Method: To assay the activity of Escherichia coli LpxC enzyme, LpxC was reacted with its substrate, UDP-3-O-(R-3-hydroxymyristoyl)-N-acetylglucosamine, and the amount of the reaction product was quantified by the amino groups present in the product
The reaction was terminated by the addition of 1.0 mg/mL-fluorescamine dissolved in a solvent obtained by mixing an equal amount of acetonitrile and dimethylformamide with the reaction mixture, and then, a 0.2 mol/L-sodium phosphate buffer solution (pH 8.0) was added thereto, and the amount of the reaction product was detected at an excitation wavelength/fluorescence wavelength=390 nm/495 nm. An inhibition curve was obtained by performing the aforementioned reaction in the presence of various concentrations of test compounds.

[2] = tested on: Escherichia coli strain ATCC25922; experiment: Antimicrobial activity, MIC by broth microdilution; assay type: cell-based; details: ATCC25922, 18 h, cation-adjusted Mueller-Hinton broth, about 5×10^5 CFU/mL, 35° C., about 18 hours, read-out: MIC Escherichia coli ATCC25922
Excerpt: (§1) Test Example 4 Evaluation of the Antimicrobial Activity
(§2) For minimum inhibitory concentration (MIC) measurement, the following broth microdilution method was applied as adapted from the standard procedure recommended by the CLSI (Clinical and Laboratory Standards Institute).
(§3) The bacteria used were Pseudomonas aeruginosa strain ATCC27853, Escherichia coli strain ATCC25922, and Klebsiella pneumoniae strain ATCC13883. After culture overnight on a heart infusion agar medium, the cells of a test bacterium were scraped off, and a bacterial solution suspended to have a turbidity of level 0.5 on the McFarland scale was diluted and used as an inoculum solution. The inoculum solution was inoculated in a cation-adjusted Mueller-Hinton broth medium containing a test compound so that the final inoculation concentration was about 5×10^5 CFU/mL, and cultured at 35° C. for about 18 hours. A minimum drug concentration at which no cell growth was visible to the naked eye was designated as MIC. […] In the table, ND represents the case where suppression of the cell growth in a drug concentration-dependent manner was not observed (Not Determined), and NT represents that no test was conducted (Not Tested).

[3] = tested on: Klebsiella pneumoniae strain ATCC13883; experiment: Antimicrobial activity, MIC by broth microdilution; assay type: cell-based; details: ATCC13883, cation-adjusted Mueller-Hinton broth, about 5×10^5 CFU/mL, 35° C., about 18 hours, read-out: MIC Klebsiella pneumoniae ATCC13883
Excerpt: as §1, §2, §3

[4] = tested on: Pseudomonas aeruginosa strain ATCC27853; experiment: Antimicrobial activity, MIC by broth microdilution; assay type: cell-based; details: ATCC27853, 18 h, cation-adjusted Mueller-Hinton broth, about 5×10^5 CFU/mL, 35° C., about 18 hours, read-out: MIC Pseudomonas aeruginosa ATCC27853
Excerpt: as §1, §2, §3

[5] = fluorescamine detection, 3.1 nmol/L enzyme, 20 μmol/L substrate, pH 6.5, 120 min, read-out: IC50 (inhibitory activity on Escherichia coli LpxC enzyme, Fluoresamine method)

SMILES | pIC50 [1, 5] | MIC [2] [µg/mL] | MIC [3] [µg/mL] | MIC [4] [µg/mL] | pIC50 [1]
COCCN1C[C@@H]2[C@@H](C#Cc3ccc(-c4cc(Cn5ccnc5[C@H](C)O)no4)cc3)[C@@H]2C1 [Compound 34, (1S)-1-(1-{[5-(4-{[(1R,5S,6s)-3-(2-methoxyethyl)-3-azabicyclo[3.1.0]hexan-6-yl]ethynyl}phenyl)-1,2-oxazol-3-yl]methyl}-1H-imidazol-2-yl)ethan-1-ol] | 6.97 | 0.25 (≈ 0.578 µM) | 0.5 (≈ 1.16 µM) | 8 (≈ 18.5 µM) | –
C[C@H](O)c1nccn1Cc1cc(-c2ccc(C#CC3(C)CN(C)C3)cc2)on1 [Compound 35, (1S)-1-{1-[(5-{4-[(1,3-dimethylazetidin-3-yl)ethynyl]phenyl}-1,2-oxazol-3-yl)methyl]-1H-imidazol-2-yl}ethan-1-ol] | 6.09 | 4 (≈ 10.6 µM) | 16 (≈ 42.5 µM) | > 128 | –
C[C@H](O)c1nccn1Cc1cc(-c2ccc(C#C[C@@H]3[C@H]4CN(C)C[C@@H]34)cc2)on1 [Compound 36, (1S)-1-(1-{[5-(4-{[(1R,5S,6s)-3-methyl-3-azabicyclo[3.1.0]hexan-6-yl]ethynyl}phenyl)-1,2-oxazol-3-yl]methyl}-1H-imidazol-2-yl)ethan-1-ol] | 7.01 | 0.5 (≈ 1.29 µM) | 1 (≈ 2.57 µM) | 16 (≈ 41.2 µM) | –
CC(=O)N1C[C@@H]2[C@@H](C#Cc3ccc(-c4cc(Cn5ccnc5[C@H](C)O)no4)cc3)[C@@H]2C1 [Compound 37, 1-[(1R,5S,6s)-6-({4-[3-({2-[(1S)-1-Hydroxyethyl]-1H-imidazol-1-yl}methyl)-1,2-oxazol-5-yl]phenyl}ethynyl)-3-azabicyclo[3.1.0]hexan-3-yl]ethan-1-one] | 7.24 | 1 (≈ 2.4 µM) | 2 (≈ 4.8 µM) | 32 (≈ 76.8 µM) | –
C[C@H](O)c1nccn1[C@H](CN(C)C)c1cc(-c2ccc(C#C[C@@H]3[C@H]4CN(CCO)C[C@@H]34)cc2)on1 [Compound 39, (1S)-1-(1-{(1R)-2-(Dimethylamino)-1-[5-(4-{[(1R,5S,6s)-3-(2-hydroxyethyl)-3-azabicyclo[3.1.0]hexan-6-yl]ethynyl}phenyl)-1,2-oxazol-3-yl]ethyl}-1H-imidazol-2-yl)ethan-1-ol] | 5.74 | 2 (≈ 4.21 µM) | 4 (≈ 8.41 µM) | 8 (≈ 16.8 µM) | –
COCCN1CC(C)(C#Cc2ccc(-c3cc(Cn4ccnc4[C@H](C)O)no3)cc2)C1 [Compound 41, (1S)-1-(1-{[5-(4-{[l-(2-methoxyethyl)-3-methylazetidin-3-yl]ethynyl}phenyl)-1,2-oxazol-3-yl]methyl}-1H-imidazol-2-yl)ethan-1-ol] | 6.64 | 2 (≈ 4.76 µM) | 4 (≈ 9.51 µM) | > 128 | –
C[C@H](O)c1nccn1Cc1cc(-c2ccc(C#C[C@@H]3[C@H]4CN(CC5COC5)C[C@@H]34)cc2)on1 [Compound 42, (1S)-1-[1-({5-[4-({(1R,5S,6s)-3-[(Oxetan-3-yl)methyl]-3-azabicyclo[3.1.0]hexan-6-yl}ethynyl)phenyl]-1,2-oxazol-3-yl}methyl)-1H-imidazol-2-yl]ethan-1-ol] | 7.33 | 0.25 (≈ 0.562 µM) | 0.5 (≈ 1.12 µM) | 16 (≈ 36 µM) | –
C[C@H](O)c1nccn1Cc1cc(-c2ccc(C#CC(C)(C)C)cc2)on1 [Compound 43, (1S)-1-[1-({5-[4-(3,3-dimethylbut-1-yn-1-yl)phenyl]-1,2-oxazol-3-yl}methyl)-1H-imidazol-2-yl]ethan-1-ol] | 7.33 | 1 (≈ 2.86 µM) | 2 (≈ 5.72 µM) | > 32 | –
C[C@H](O)c1nccn1Cc1cc(-c2ccc(C#CC3COC3)cc2)on1 [Compound 44, (1S)-1-{1-[(5-{4-[(oxetan-3-yl)ethynyl]phenyl}-1,2-oxazol-3-yl)methyl]-1H-imidazol-2-yl}ethan-1-ol] | 7.64 | 2 (≈ 5.72 µM) | 2 (≈ 5.72 µM) | 128 (≈ 366 µM) | –
CNC1(C#Cc2ccc(-c3cc(Cn4ccnc4[C@H](C)O)no3)cc2)CC1 [Compound 45, (1S)-1-(1-{[5-(4-{[1-(Methylamino)cyclopropyl]ethynyl}phenyl)-1,2-oxazol-3-yl]methyl}-1H-imidazol-2-yl)ethan-1-ol] | – | 0.25 (≈ 0.69 µM) | 0.5 (≈ 1.38 µM) | 128 (≈ 353 µM) | 6.57
C[C@H](O)c1nccn1Cc1cc(-c2ccc(C#CC3C4COCC34)cc2)on1 (stereo partly drawn) [Compound 46, (1S)-1-{1-[(5-{4-[(3-oxabicyclo[3.1.0]hexan-6-yl)ethynyl]phenyl}-1,2-oxazol-3-yl)methyl]-1H-imidazol-2-yl} ethan-1-ol] | 7.87 | 0.12 (≈ 0.32 µM) | 0.12 (≈ 0.32 µM) | > 32 | –
C[C@H](O)c1nccn1Cc1cc(-c2ccc(C#CC3(C)COC3)cc2)on1 [Compound 47, (1S)-1-{1-[(5-{4-[(3-methyloxetan-3-yl)ethynyl]phenyl}-1,2-oxazol-3-yl)methyl]-1H-imidazol-2-yl} ethan-1-ol] | 7.71 | 0.5 (≈ 1.38 µM) | 1 (≈ 2.75 µM) | > 128 | –
C[C@H](O)c1nccn1Cc1cc(-c2ccc(C#CCO)cc2)on1 [Compound 48, 3-{4-[3-((2-[(1S)-1-hydroxyethyl]-1H-imidazol-1-yl}methyl)-1,2-oxazol-5-yl]phenyl}prop-2-yn-1-ol] | 6.44 | 16 (≈ 49.5 µM) | 32 (≈ 99 µM) | > 32 | –
C[C@H](O)c1nccn1Cc1cc(-c2ccc(C#CC3CCOC3)cc2)on1 (stereo partly drawn) [Compound 49, (1S)-1-{1-[(5-{4-[(oxolan-3-yl)ethynyl]phenyl}-1,2-oxazol-3-yl)methyl]-1H-imidazol-2-yl}ethan-1-ol] | 7.53 | 0.5 (≈ 1.38 µM) | 1 (≈ 2.75 µM) | > 32 | –
C[C@H](O)c1nccn1Cc1cc(-c2ccc(C#CC3(N(C)C)CC3)cc2)on1 [Compound 50, (1S)-1-(1-{[5-(4-{[1-(dimethylamino)cyclopropyl]ethynyl}phenyl)-1,2-oxazol-3-yl]methyl}-1H-imidazol-2-yl)ethan-1-ol] | 6.69 | 2 (≈ 5.31 µM) | 4 (≈ 10.6 µM) | > 128 | –
C[C@H](O)c1nccn1Cc1cc(-c2ccc(C#CCNC3CC3)cc2)on1 [Compound 51, (1S)-1-{1-[(5-(4-[3-(cyclopropylamino)prop-1-yn-1-yl]phenyl}-1,2-oxazol-3-yl)methyl]-1H-imidazol-2-yl}ethan-1-ol] | 6.74 | 1 (≈ 2.76 µM) | 2 (≈ 5.52 µM) | > 32 | –
C[C@H](O)c1nccn1Cc1cc(-c2ccc(C#CC3(O)CC3)cc2)on1 [Compound 52, 1-({4-[3-({2-[(1S)-1-hydroxyethyl]-1H-imidazol-1-yl}methyl)-1,2-oxazol-5-yl]phenyl}ethynyl)cyclopropan-1-ol] | 7.08 | 2 (≈ 5.72 µM) | 4 (≈ 11.4 µM) | 128 (≈ 366 µM) | –
COCC#Cc1ccc(-c2cc(Cn3ccnc3[C@H](C)O)no2)cc1 [Compound 53, (1S)-1-[l-((5-[4-(3-methoxyprop-1-yn-1-yl)phenyl]-1,2-oxazol-3-yl}methyl)-1H-imidazol-2-yl]ethan-1-ol] | 7.09 | 4 (≈ 11.9 µM) | 2 (≈ 5.93 µM) | > 128 | –
CC(O)CN1C[C@@H]2[C@@H](C#Cc3ccc(-c4cc(Cn5ccnc5[C@H](C)O)no4)cc3)[C@@H]2C1 (stereo partly drawn) [Compound 55, 1-[(1R,5S,6s)-6-({4-[3-({2-[(1S)-1-hydroxyethyl]-1H-imidazol-1-yl}methyl)-1,2-oxazol-5-yl]phenyl}ethynyl)-3-azabicyclo[3.1.0]hexan-3-yl]propan-2-ol] | 7.01 | 0.5 (≈ 1.16 µM) | 1 (≈ 2.31 µM) | 16 (≈ 37 µM) | –
C[C@H](O)c1nccn1Cc1cc(-c2ccc(C#C[C@@H]3[C@H]4CN(C(CO)CO)C[C@@H]34)cc2)on1 [Compound 56, 2-[(1R,5S,6s)-6-({4-[3-((2-[(1S)-1-hydroxyethyl]-1H-imidazol-1-yl}methyl)-1,2-oxazol-5-yl]phenyl}ethynyl)-3-azabicyclo[3.1.0]hexan-3-yl]propan-1,3-diol] | 7.08 | 1 (≈ 2.23 µM) | 2 (≈ 4.46 µM) | 8 (≈ 17.8 µM) | –
